Test results reported in patent US20240109865A1, “INDAZOLE COMPOUNDS AS KINASE INHIBITORS” (TYRA BIOSCIENCES, INC., priority 2020, published 2024).

Assays:
[1] = target: FGFR3-BAIAP2L1 Ba/F3 cells (Homo sapiens, UniProt P22607); assay: Ba/F3 cell viability assay (CellTiter-Glo 2.0), FGFR3-BAIAP2L1 Ba/F3; assay type: cell-based; settings: for Ba/F3 FGFR1/FGFR3 Selectivity: FGFR3 > FGFR1 selectivity ratio in Ba/F3 FGFR fusion cell based assays; for IC50: read-out: Ba/F3 Cells FGFR3 (IC50 nM), FGFR3-BAIAP2L1 Ba/F3 cells, 48 hours, Cell Titer Glo 2.0
Sequence of FGFR3-BAIAP2L1 Ba/F3 cells (P22607 23-806 limits assumed, change not shown): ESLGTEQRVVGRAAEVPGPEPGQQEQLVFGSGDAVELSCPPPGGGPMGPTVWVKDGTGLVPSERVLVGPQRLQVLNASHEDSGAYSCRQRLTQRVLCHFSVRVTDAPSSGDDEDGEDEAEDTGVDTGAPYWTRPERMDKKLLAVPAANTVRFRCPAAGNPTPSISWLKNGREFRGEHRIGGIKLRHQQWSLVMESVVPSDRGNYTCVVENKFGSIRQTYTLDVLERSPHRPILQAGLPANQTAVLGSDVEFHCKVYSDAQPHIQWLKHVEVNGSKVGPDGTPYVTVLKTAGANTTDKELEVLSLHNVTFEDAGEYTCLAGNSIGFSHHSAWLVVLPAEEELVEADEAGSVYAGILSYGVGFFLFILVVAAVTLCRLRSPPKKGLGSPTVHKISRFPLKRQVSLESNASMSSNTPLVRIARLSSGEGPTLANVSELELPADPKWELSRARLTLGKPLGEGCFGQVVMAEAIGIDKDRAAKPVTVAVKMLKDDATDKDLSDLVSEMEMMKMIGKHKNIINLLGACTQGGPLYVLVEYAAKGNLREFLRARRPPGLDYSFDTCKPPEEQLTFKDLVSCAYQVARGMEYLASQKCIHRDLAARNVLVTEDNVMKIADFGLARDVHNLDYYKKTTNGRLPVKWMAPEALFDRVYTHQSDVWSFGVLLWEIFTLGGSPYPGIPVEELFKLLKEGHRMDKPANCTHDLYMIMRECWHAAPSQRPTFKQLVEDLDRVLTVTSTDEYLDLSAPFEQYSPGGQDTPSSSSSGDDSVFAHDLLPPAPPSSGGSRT
How it was run: (§1)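 Viability read as ATP luminescence (CellTiter-Glo 2.0) after 48 h compound exposure, normalized to DMSO-treated cells and fitted with a 4-parameter curve for IC50. Cells: Ba/F3 dependent on FGFR1-BCR or FGFR3-BAIAP2L1 fusion kinase; top dose 30 μM, 10-fold steps, 9 doses in triplicate.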

FGFR1-BCR Ba/F3 cells = FGFR1-BCR Ba/F3 cells (Homo sapiens, UniProt P11362); assay: Ba/F3 cell viability assay (CellTiter-Glo 2.0), FGFR1-BCR Ba/F3; assay type: cell-based; settings: read-out: Ba/F3 Cells FGFR1 (IC50 nM), 48 hours, Cell Titer Glo 2.0
Sequence of FGFR1-BCR Ba/F3 cells (P11362 22-822 limits assumed, change not shown): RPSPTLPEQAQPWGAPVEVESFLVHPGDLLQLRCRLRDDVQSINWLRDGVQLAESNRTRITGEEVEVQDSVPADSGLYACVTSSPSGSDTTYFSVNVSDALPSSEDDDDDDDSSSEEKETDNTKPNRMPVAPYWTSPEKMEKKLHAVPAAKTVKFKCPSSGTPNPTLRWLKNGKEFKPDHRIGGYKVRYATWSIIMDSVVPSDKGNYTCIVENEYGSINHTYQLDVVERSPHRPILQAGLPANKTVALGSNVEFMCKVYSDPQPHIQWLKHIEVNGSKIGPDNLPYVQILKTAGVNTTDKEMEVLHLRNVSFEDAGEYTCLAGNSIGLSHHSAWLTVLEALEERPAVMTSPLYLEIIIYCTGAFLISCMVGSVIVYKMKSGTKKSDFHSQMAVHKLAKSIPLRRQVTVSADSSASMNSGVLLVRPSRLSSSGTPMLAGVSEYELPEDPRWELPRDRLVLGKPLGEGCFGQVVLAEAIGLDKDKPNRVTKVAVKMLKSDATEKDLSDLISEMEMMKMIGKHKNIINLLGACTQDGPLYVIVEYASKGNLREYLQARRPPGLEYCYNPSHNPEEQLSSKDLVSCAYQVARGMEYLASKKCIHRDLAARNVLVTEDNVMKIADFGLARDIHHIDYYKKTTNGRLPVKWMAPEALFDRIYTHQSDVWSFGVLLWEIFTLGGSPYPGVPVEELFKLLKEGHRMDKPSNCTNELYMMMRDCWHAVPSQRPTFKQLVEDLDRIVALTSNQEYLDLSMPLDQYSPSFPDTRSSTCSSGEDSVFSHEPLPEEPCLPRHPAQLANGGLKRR
How it was run: as §1

[2] = test system: RT112/84 cells (FGFR3-fusion); assay: RT112/84 cancer cell line cell viability assay (CellTiter-Glo 2.0); assay type: cell-based; settings: Homo sapiens, 72 hours, Cell Titer Glo 2.0
How it was run: (§2)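 Viability was measured as cellular ATP by CellTiter-Glo 2.0 luminescence after 72 h compound exposure, using nine 10-fold doses from 30 μM, in triplicate. Cells were plated at 10,000/well in RPMI1640 with 10% FBS the day before dosing. Signal was expressed as % of DMSO-treated control, and IC50 came from a 4-parameter fit.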

[3] = test system: UM-UC-14 cells (FGFR3(S249C)); assay: UM-UC-14 cancer cell line cell viability assay (CellTiter-Glo 2.0); assay type: cell-based; settings: UMUC14, 72 hours, Cell Titer Glo 2.0
How it was run: as §2

[4] = test system: KG-1 cells (FGFR1-fusion); assay: KG-1 cancer cell line cell viability assay (CellTiter-Glo 2.0); assay type: cell-based; settings: Homo sapiens, 72 hours, Cell Titer Glo 2.0
How it was run: as §2

FGFR1 = FGFR1 (Homo sapiens (Human), UniProt P11362); assay: Kinase assay, binding constants (Kd), kinase-tagged T7 phage, qPCR
Sequence of FGFR1 (P11362 22-822): as the sequence (P11362 22-822 limits assumed, change not shown) above
How it was run: (§3)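 Using T7 phage lysates from BL21-derived E. coli, compounds at 0.9% final DMSO competed for kinase binding to ligand-bearing magnetic beads. After elution, qPCR measured remaining kinase, and Kds were fitted by non-linear least squares with the Hill slope fixed at −1.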

FGFR2 = FGFR2 (Homo sapiens (Human), UniProt P21802); assay: as above
Sequence of FGFR2 (P21802 22-821): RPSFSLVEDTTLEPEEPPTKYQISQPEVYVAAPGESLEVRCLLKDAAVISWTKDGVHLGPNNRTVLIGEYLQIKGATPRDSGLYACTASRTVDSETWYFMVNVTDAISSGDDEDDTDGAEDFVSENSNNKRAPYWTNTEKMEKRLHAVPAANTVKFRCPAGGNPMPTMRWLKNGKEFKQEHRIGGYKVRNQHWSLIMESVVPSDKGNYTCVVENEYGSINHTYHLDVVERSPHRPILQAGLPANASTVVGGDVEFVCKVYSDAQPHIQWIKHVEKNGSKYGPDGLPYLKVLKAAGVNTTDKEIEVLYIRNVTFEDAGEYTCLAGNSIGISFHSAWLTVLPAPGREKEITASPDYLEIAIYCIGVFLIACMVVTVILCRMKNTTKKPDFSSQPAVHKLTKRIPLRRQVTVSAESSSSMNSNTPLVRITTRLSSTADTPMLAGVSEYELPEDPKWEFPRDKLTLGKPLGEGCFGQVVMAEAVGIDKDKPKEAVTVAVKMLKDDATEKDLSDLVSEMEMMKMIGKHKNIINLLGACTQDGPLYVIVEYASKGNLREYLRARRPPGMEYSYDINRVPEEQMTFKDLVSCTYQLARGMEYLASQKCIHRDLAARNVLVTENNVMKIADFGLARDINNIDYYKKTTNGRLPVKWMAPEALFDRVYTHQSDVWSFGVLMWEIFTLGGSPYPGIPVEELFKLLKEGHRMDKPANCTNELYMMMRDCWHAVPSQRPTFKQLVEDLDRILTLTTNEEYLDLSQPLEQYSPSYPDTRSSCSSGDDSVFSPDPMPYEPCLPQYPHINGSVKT
How it was run: as §3

FGFR3 = FGFR3 (Homo sapiens (Human), UniProt P22607); assay: as above
Sequence of FGFR3 (P22607 23-806): as the sequence (P22607 23-806 limits assumed, change not shown) above
How it was run: as §3

FGFR3 (V555M) = FGFR3 (V555M) (Homo sapiens (Human), UniProt P22607, V555M); assay: as above; settings: V555M mutant
Sequence of FGFR3 (V555M) (P22607 23-806 V555M): as the sequence (P22607 23-806 limits assumed, change not shown) above, with V533M counted along it
How it was run: as §3

FGFR4 = FGFR4 (Homo sapiens (Human), UniProt P22455); assay: as above
Sequence of FGFR4 (P22455 22-802): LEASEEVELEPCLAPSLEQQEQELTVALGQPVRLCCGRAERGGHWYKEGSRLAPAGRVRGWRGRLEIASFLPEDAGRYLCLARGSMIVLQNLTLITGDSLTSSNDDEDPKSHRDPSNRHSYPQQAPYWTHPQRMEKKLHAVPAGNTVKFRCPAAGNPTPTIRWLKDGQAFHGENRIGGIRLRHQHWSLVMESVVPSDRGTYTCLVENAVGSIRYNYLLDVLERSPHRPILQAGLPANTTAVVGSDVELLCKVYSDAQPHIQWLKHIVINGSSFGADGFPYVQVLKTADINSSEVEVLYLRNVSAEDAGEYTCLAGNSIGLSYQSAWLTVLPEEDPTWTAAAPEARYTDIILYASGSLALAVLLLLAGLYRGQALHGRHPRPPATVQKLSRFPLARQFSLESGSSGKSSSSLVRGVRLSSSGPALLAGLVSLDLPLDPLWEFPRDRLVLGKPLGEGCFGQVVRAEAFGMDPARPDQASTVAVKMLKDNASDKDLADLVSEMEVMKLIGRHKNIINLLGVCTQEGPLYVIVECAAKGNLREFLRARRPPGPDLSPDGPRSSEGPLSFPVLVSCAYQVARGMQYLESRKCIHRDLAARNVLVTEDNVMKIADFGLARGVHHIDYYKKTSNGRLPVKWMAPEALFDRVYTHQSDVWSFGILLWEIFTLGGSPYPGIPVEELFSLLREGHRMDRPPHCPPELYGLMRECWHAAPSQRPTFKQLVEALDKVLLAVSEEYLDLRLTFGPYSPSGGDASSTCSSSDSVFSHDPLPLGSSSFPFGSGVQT
How it was run: as §3

Row | Structure (SMILES) | Ba/F3 FGFR1/FGFR3 Selectivity [1] | IC50 [1] [nM] | IC50 (FGFR1-BCR Ba/F3 cells) [nM] | IC50 [2] [nM] | IC50 [3] [nM] | IC50 [4] [nM] | Kd (FGFR1) [nM] | Kd (FGFR2) [nM] | Kd (FGFR3) [nM] | Kd (FGFR3 (V555M)) [nM] | Kd (FGFR4) [nM]
1 | C[C@@H](Oc1ccc2[nH]nc(-c3ccc(N4CCC5(CCCN5C)CC4)nc3)c2c1)c1c(Cl)cncc1Cl [Example 33, 8-[5-[5-[(1R)-1-(3,5-dichloro-4-pyridyl)ethoxy]-1H-indazol-3-yl]-2-pyridyl]-1-methyl-1,8-diazaspiro[4.5]decane] | 16 | 1 to 20 | 20 to 100 | 1 to 20 | 1 to 20 | 20 to 100 | 1 to 20 | 1 to 20 | 1 to 20 | 1 to 20 | 1 to 20
2 | C[C@@H](Oc1ccc2[nH]nc(-c3ccc(N4CCC5(CC4)C(=O)NCCN5C)nc3)c2c1)c1c(Cl)cncc1Cl [Example 34, 9-[5-[5-[(1R)-1-(3,5-dichloro-4-pyridyl)ethoxy]-1H-indazol-3-yl]-2-pyridyl]-1-methyl-1,4,9-triazaspiro[5.5]undecan-5-one] | 28 | 1 to 20 | 20 to 100 | 1 to 20 | 1 to 20 | 20 to 100 | 1 to 20 | 1 to 20 | 1 to 20 | 1 to 20 | 1 to 20
3 | C[C@@H](Oc1ccc2[nH]nc(-c3ccc(N4CC5(C4)CN(S(C)(=O)=O)C5)nc3)c2c1)c1c(Cl)cncc1Cl [Example 46, 5-[(1R)-1-(3,5-dichloro-4-pyridyl)ethoxy]-3-[6-(2-methylsulfonyl-2,6-diazaspiro[3.3]heptan-6-yl)-3-pyridyl]-1H-indazole] | 14 | 1 to 20 | 20 to 100 | 1 to 20 | 1 to 20 | 20 to 100 | 1 to 20 | 1 to 20 | 1 to 20 | 1 to 20 | 1 to 20
4 | C[C@@H](Oc1ccc2[nH]nc(-c3ccc(N4CC5(CN(C(=O)N(C)C)C5)C4)nc3)c2c1)c1c(Cl)cncc1Cl [Example 47, 6-[5-[5-[(1R)-1-(3,5-dichloro-4-pyridyl)ethoxy]-1H-indazol-3-yl]-2-pyridyl]-N,N-dimethyl-2,6-diazaspiro[3.3]heptane-2-carboxamide] | 21 | 1 to 20 | 100 to 300 | 1 to 20 | 1 to 20 | 100 to 300 | 1 to 20 | 1 to 20 | 1 to 20 | 1 to 20 | 1 to 20
5 | C[C@@H](Oc1ccc2[nH]nc(-c3cnc(N4CCC5(CCC(=O)N5)CC4)nc3)c2c1)c1c(Cl)cncc1Cl [Example 48, 8-[5-[5-[(1R)-1-(3,5-dichloro-4-pyridyl)ethoxy]-1H-indazol-3-yl]pyrimidin-2-yl]-1,8-diazaspiro[4.5]decan-2-one] | 8 | 20 to 100 | 100 to 300 | 20 to 100 | 20 to 100 | 100 to 300 | 20 to 100 | 20 to 100 | 1 to 20 | 1 to 20 | 1 to 20
6 | C[C@@H](Oc1ccc2[nH]nc(-c3cnc(N4CCC5(CC4)CNC(=O)C5)nc3)c2c1)c1c(Cl)cncc1Cl [Example 49, 8-[5-[5-[(1R)-1-(3,5-dichloro-4-pyridyl)ethoxy]-1H-indazol-3-yl]pyrimidin-2-yl]-2,8-diazaspiro[4.5]decan-3-one] | 10 | 1 to 20 | 100 to 300 | 20 to 100 | 20 to 100 | 100 to 300 | 20 to 100 | 20 to 100 | 1 to 20 | 1 to 20 | 1 to 20
